Measurements published in the NIST ThermoML archive (doi:10.1016/j.jct.2016.11.009).

Test: xn = mol fraction of the nth substance listed
Conditions: Fluid (supercritical or subcritical phases), Buoyancy - hydrostatic balance with magnetic suspension - one sinker

C [methane] + O=C=O
Conditions | mass density [kg/m3]
299.61 K, 4220 kPa, x2 = 0.6015 | 65.102
299.93 K, 5997 kPa, x2 = 0.3997 | 77.827
299.94 K, 6004 kPa, x2 = 0.6015 | 100.404
299.95 K, 9002 kPa, x2 = 0.2017 | 95.03
299.95 K, 15006 kPa, x2 = 0.8988 | 723.669
299.96 K, 5002 kPa, x2 = 0.6015 | 79.746
299.96 K, 7003 kPa, x2 = 0.3997 | 93.846
299.96 K, 7999 kPa, x2 = 0.2017 | 82.733
299.96 K, 8008 kPa, x2 = 0.8988 | 302.149
299.96 K, 12001 kPa, x2 = 0.3997 | 186.929
299.97 K, 5996 kPa, x2 = 0.7985 | 129.225
299.97 K, 6997 kPa, x2 = 0.2017 | 70.838
299.97 K, 8000 kPa, x2 = 0.3997 | 110.726
299.97 K, 10986 kPa, x2 = 0.8988 | 631.428
299.97 K, 13852 kPa, x2 = 0.0998 | 130.843
299.98 K, 2118 kPa, x2 = 0.0998 | 16.647
299.98 K, 4383 kPa, x2 = 0.0998 | 35.981
299.98 K, 7000 kPa, x2 = 0.6015 | 123.126
299.98 K, 7004 kPa, x2 = 0.8988 | 203.104
299.98 K, 8002 kPa, x2 = 0.6015 | 148.65
299.98 K, 8997 kPa, x2 = 0.3997 | 128.548
299.98 K, 8997 kPa, x2 = 0.8988 | 483.358
299.98 K, 9722 kPa, x2 = 0.0998 | 87.624
299.98 K, 10003 kPa, x2 = 0.7985 | 353.847
299.98 K, 10997 kPa, x2 = 0.7985 | 428.638
299.99 K, 4000 kPa, x2 = 0.2017 | 37.902
299.99 K, 4003 kPa, x2 = 0.3997 | 48.763
299.99 K, 4192 kPa, x2 = 0.0998 | 34.275
299.99 K, 4997 kPa, x2 = 0.7985 | 99.658
299.99 K, 6002 kPa, x2 = 0.2017 | 59.46
299.99 K, 10005 kPa, x2 = 0.2017 | 107.622
299.99 K, 12000 kPa, x2 = 0.2017 | 133.357
299.99 K, 12004 kPa, x2 = 0.6015 | 275.504
299.99 K, 12017 kPa, x2 = 0.8988 | 664.349
299.99 K, 14986 kPa, x2 = 0.0998 | 142.483
299.99 K, 18001 kPa, x2 = 0.2017 | 207.683
300 K, 3662 kPa, x2 = 0.2017 | 34.438
300 K, 6399 kPa, x2 = 0.0998 | 54.523
300 K, 7624 kPa, x2 = 0.0998 | 66.394
300 K, 8000 kPa, x2 = 0.7985 | 212.092
300 K, 10995 kPa, x2 = 0.3997 | 166.796
300 K, 14999 kPa, x2 = 0.2017 | 171.971
300 K, 17997 kPa, x2 = 0.6015 | 433.882
300.01 K, 5001 kPa, x2 = 0.2017 | 48.462
300.01 K, 8998 kPa, x2 = 0.7985 | 274.617
300.01 K, 9002 kPa, x2 = 0.6015 | 176.866
300.01 K, 11000 kPa, x2 = 0.2017 | 120.384
300.02 K, 2964 kPa, x2 = 0.0998 | 23.652
300.02 K, 3999 kPa, x2 = 0.7985 | 74.633
300.02 K, 6996 kPa, x2 = 0.7985 | 165.378
300.02 K, 9996 kPa, x2 = 0.6015 | 207.768
300.02 K, 10011 kPa, x2 = 0.8988 | 582.856
300.02 K, 15007 kPa, x2 = 0.3997 | 246.022
300.02 K, 18000 kPa, x2 = 0.0998 | 171.73
300.03 K, 5996 kPa, x2 = 0.8988 | 149.398
300.03 K, 10998 kPa, x2 = 0.6015 | 241.279
300.03 K, 11790 kPa, x2 = 0.0998 | 109.201
300.03 K, 17999 kPa, x2 = 0.8988 | 760.577
300.04 K, 5006 kPa, x2 = 0.8988 | 112.111
300.04 K, 6260 kPa, x2 = 0.0998 | 53.19
300.04 K, 12001 kPa, x2 = 0.7985 | 485.736
300.04 K, 14998 kPa, x2 = 0.6015 | 367.75
300.05 K, 18002 kPa, x2 = 0.3997 | 297.591
300.06 K, 5002 kPa, x2 = 0.3997 | 62.85
300.06 K, 17999 kPa, x2 = 0.7985 | 637.414
300.07 K, 9277 kPa, x2 = 0.0998 | 82.984
300.07 K, 14999 kPa, x2 = 0.7985 | 584.129
300.07 K, 16598 kPa, x2 = 0.0998 | 158.42
300.1 K, 4310 kPa, x2 = 0.8988 | 90.757
300.21 K, 10004 kPa, x2 = 0.3997 | 147.143
303.07 K, 10005 kPa, x2 = 0.8988 | 522.742
303.07 K, 11007 kPa, x2 = 0.8988 | 588.449
303.1 K, 11000 kPa, x2 = 0.6015 | 229.981
303.1 K, 12003 kPa, x2 = 0.0998 | 109.095
303.1 K, 18071 kPa, x2 = 0.7985 | 621.015
303.11 K, 4004 kPa, x2 = 0.8988 | 80.364
303.11 K, 9000 kPa, x2 = 0.0998 | 78.724
303.11 K, 9001 kPa, x2 = 0.7985 | 254.341
303.11 K, 17996 kPa, x2 = 0.2017 | 202.897
303.11 K, 18001 kPa, x2 = 0.0998 | 167.945
303.12 K, 3001 kPa, x2 = 0.0998 | 23.673
303.12 K, 10001 kPa, x2 = 0.7985 | 320.908
303.12 K, 11000 kPa, x2 = 0.0998 | 98.851
303.13 K, 3999 kPa, x2 = 0.2017 | 37.359
303.13 K, 4999 kPa, x2 = 0.3997 | 61.796
303.13 K, 6004 kPa, x2 = 0.7985 | 125.434
303.13 K, 6999 kPa, x2 = 0.2017 | 69.612
303.13 K, 11860 kPa, x2 = 0.7985 | 444.556
303.13 K, 11999 kPa, x2 = 0.2017 | 130.323
303.14 K, 3995 kPa, x2 = 0.6015 | 59.469
303.14 K, 7004 kPa, x2 = 0.6015 | 119.411
303.14 K, 8002 kPa, x2 = 0.0998 | 68.892
303.14 K, 17999 kPa, x2 = 0.6015 | 420.157
303.15 K, 5000 kPa, x2 = 0.0998 | 40.895
303.15 K, 8006 kPa, x2 = 0.6015 | 143.46
303.15 K, 9999 kPa, x2 = 0.6015 | 198.747
303.15 K, 10004 kPa, x2 = 0.0998 | 88.738
303.15 K, 11003 kPa, x2 = 0.7985 | 391.279
303.15 K, 12001 kPa, x2 = 0.3997 | 181.298
303.15 K, 14998 kPa, x2 = 0.7985 | 561.073
303.16 K, 4000 kPa, x2 = 0.7985 | 73.078
303.16 K, 4001 kPa, x2 = 0.3997 | 48.004
303.16 K, 5009 kPa, x2 = 0.6015 | 77.914
303.16 K, 6006 kPa, x2 = 0.0998 | 50.034
303.16 K, 7994 kPa, x2 = 0.7985 | 200.301
303.16 K, 8000 kPa, x2 = 0.3997 | 108.241
303.16 K, 8016 kPa, x2 = 0.8988 | 253.316
303.16 K, 8992 kPa, x2 = 0.8988 | 374.284
303.16 K, 8999 kPa, x2 = 0.6015 | 169.77
303.17 K, 4998 kPa, x2 = 0.2017 | 47.685
303.17 K, 5005 kPa, x2 = 0.8988 | 108.149
303.17 K, 6001 kPa, x2 = 0.2017 | 58.474
303.17 K, 9001 kPa, x2 = 0.2017 | 93.089
303.17 K, 14997 kPa, x2 = 0.0998 | 139.317
303.17 K, 18000 kPa, x2 = 0.8988 | 742.988
303.18 K, 4002 kPa, x2 = 0.0998 | 32.139
303.18 K, 5999 kPa, x2 = 0.3997 | 76.379
303.18 K, 6996 kPa, x2 = 0.3997 | 91.801
303.18 K, 7001 kPa, x2 = 0.8988 | 186.521
303.18 K, 7999 kPa, x2 = 0.2017 | 81.148
303.19 K, 7000 kPa, x2 = 0.0998 | 59.247
303.19 K, 12002 kPa, x2 = 0.6015 | 261.85
303.19 K, 15005 kPa, x2 = 0.2017 | 167.871
303.2 K, 5001 kPa, x2 = 0.7985 | 97.235
303.2 K, 8999 kPa, x2 = 0.3997 | 125.402
303.2 K, 10993 kPa, x2 = 0.3997 | 162.067
303.2 K, 10996 kPa, x2 = 0.2017 | 117.65
303.21 K, 7002 kPa, x2 = 0.7985 | 158.82
303.21 K, 9999 kPa, x2 = 0.3997 | 143.458
303.21 K, 15000 kPa, x2 = 0.8988 | 701.018
303.21 K, 17999 kPa, x2 = 0.3997 | 288.435
303.22 K, 9998 kPa, x2 = 0.2017 | 105.223
303.22 K, 15003 kPa, x2 = 0.6015 | 352.168
303.23 K, 6005 kPa, x2 = 0.6015 | 97.567
303.26 K, 6002 kPa, x2 = 0.8988 | 141.868
